Laboratory results published in ChEMBL document CHEMBL4130367, “Click chemistry-based synthesis and anticancer activity evaluation of novel C-14 1,2,3-triazole dehydroabietic acid hybrids” (Eur J Med Chem, 2017).
pIC50: −log10 of the molar value. Calls of active or inactive are those of the source. No cut-off for these calls is given here.

How the values were obtained:
[1] = Metabolic stability in mouse liver microsomes assessed as parent compound remaining after 30 mins in presence of NADPH by HPLC analysis; format: ADME, microsome; details: read-out: Stability
[2] = system: MDA-MB-231; assay: Induction of apoptosis in human MDA-MB-231 cells assessed as downregulation of Bcl2 protein expression after 48 hrs by Western blot analysis; format: functional, cell-based
[3] = Octanol-water partition coefficient, log P of the compound; format: physicochemical
[4] = system: MDA-MB-231; assay: Induction of apoptosis in human MDA-MB-231 cells assessed as late apoptotic cells at 0.1 uM after 24 hrs by Annexin V-FITC/propidium iodide staining based flow cytometry (reference value: 2.97%); format: functional
[5] = Metabolic stability in mouse liver microsomes assessed as parent compound remaining after 150 mins in presence of NADPH by HPLC analysis; format: ADME, microsome; details: read-out: Stability
[6] = system: SK-BR-3; assay: Cytotoxicity against human SKBR3 cells assessed as reduction in cell viability after 72 hrs by MTT assay; format: functional, cell-based; details: SK-BR-3, 72 h
[7] = Metabolic stability in mouse liver microsomes assessed as parent compound remaining after 60 mins in presence of NADPH by HPLC analysis; format: ADME, microsome; details: read-out: Stability
[8] = system: HFF; assay: Cytotoxicity against HFF cells assessed as reduction in cell viability after 72 hrs by MTT assay; format: cell-based; details: Homo sapiens
[9] = Selectivity index, ratio of IC50 for HFF cells to IC50 for human A549 cells; format: toxicity; details: HFF cells versus A549 cells, read-out: Ratio IC50
[10] = Metabolic stability in dog liver microsomes assessed as parent compound remaining after 60 mins in presence of NADPH by HPLC analysis; format: ADME, Canis lupus familiaris, microsome; details: read-out: Stability
[11] = Half life in rat liver microsomes in presence of NADPH by HPLC analysis; format: ADME, microsome
[12] = Half life in mouse liver microsomes in presence of NADPH by HPLC analysis; format: ADME, microsome
[13] = Metabolic stability in dog liver microsomes assessed as parent compound remaining after 120 mins in presence of NADPH by HPLC analysis; format: ADME, Canis lupus familiaris, microsome; details: 2 h
[14] = system: MDA-MB-231; assay: Induction of apoptosis in human MDA-MB-231 cells assessed as upregulation of Bax protein expression after 48 hrs by Western blot analysis; format: functional, cell-based
[15] = system: MCF7; assay: cells; details: Homo sapiens, MCF7, 72 h
Description: Cytotoxicity against human MCF7 cells assessed as reduction in cell viability after 72 hrs by MTT assay

[16] = Selectivity index, ratio of IC50 for HFF cells to IC50 for human U251 cells; format: toxicity; details: HFF cells versus U251 cells, read-out: Ratio IC50
[17] = Cytotoxicity against human […] cells assessed as reduction in cell viability after 72 hrs by MTT assay; format: functional, cell-based
[18] = Selectivity index, ratio of IC50 for HFF cells to IC50 for human LNCAP cells; format: toxicity; details: HFF cells versus LNCAP cells, read-out: Ratio IC50

COC(=O)[C@]1(C)CCC[C@]2(C)c3ccc(C(C)C)c(NC(=O)Cn4cc(-c5cccc(NC(=O)OC(C)(C)C)c5)nn4)c3CC[C@@H]12
remaining at 0.5 h [1]: 87.9%
Activity [2]: Active
logP [3]: 6.07
Activity [4]: 9.91%
remaining at 2.5 h [5]: 25.7%
pIC50 [6]: 6.05
remaining at 1 h [7]: 72.6%
pIC50 [8]: 5.27
selectivity ratio [9]: 4.2
remaining at 1 h [10]: 59%
half-life [11]: 131 min
half-life [12]: 106 min
Stability [13]: 4.8%
Activity [14]: Active
pIC50 [15]: 6.10
selectivity ratio [16]: 3.1
pIC50 [17]: 5.96
selectivity ratio [18]: 8.6
